Results published in patent US9938273B2 (Plexxikon Inc., priority 2015, dated 2018).

These molecules were tested against T1, FLT3-D835Y (Homo sapiens, UniProt P36888, D835Y) (assay: AlphaScreen kinase assay with recombinant enzyme, FLT3-D835Y). Conditions: 8pt, GMean.
T1 construct: purchased Invitrogen PV3967
T1 sequence (P36888 27-993 D835Y): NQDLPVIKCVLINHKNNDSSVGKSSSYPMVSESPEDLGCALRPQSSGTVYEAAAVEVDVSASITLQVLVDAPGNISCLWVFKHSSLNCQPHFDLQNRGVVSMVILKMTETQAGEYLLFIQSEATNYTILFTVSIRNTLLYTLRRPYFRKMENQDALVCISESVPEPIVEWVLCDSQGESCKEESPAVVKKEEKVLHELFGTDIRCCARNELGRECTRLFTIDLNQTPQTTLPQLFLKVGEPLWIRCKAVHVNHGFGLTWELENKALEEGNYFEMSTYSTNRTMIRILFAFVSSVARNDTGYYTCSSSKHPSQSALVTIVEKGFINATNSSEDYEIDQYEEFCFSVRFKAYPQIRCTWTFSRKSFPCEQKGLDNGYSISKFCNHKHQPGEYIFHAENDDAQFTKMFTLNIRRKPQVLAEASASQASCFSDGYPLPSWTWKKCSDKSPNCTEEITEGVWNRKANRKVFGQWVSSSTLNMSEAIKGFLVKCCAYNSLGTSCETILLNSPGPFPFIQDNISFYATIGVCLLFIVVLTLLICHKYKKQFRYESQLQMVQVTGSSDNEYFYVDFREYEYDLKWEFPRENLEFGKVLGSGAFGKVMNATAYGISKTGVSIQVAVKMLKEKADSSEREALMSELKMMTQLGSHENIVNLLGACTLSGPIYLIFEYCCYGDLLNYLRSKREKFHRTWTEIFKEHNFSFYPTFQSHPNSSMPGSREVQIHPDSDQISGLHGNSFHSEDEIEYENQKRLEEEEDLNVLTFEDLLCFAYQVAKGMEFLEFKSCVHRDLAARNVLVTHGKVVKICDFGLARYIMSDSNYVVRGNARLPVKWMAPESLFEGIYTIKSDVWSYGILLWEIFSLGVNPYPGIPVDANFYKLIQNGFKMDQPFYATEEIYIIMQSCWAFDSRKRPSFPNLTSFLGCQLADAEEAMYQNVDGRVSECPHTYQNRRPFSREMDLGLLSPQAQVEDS
Assay type: biochemical
Outline: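 Inhibition was measured as a drop in AlphaScreen signal arising from phosphotyrosine-bead capture of a biotinylated poly(Glu4-Tyr) peptide (30 nM) phosphorylated by recombinant kinase. For IC50 work the stated final concentration was 10 μM for the FLT3 mutants and 100 μM for c-KIT.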

Compound | IC50
CON(C)C(=O)c1cccc(-c2cnc3[nH]c(-c4ccccc4)cc3c2)c1 [Compound P-0002, N-methoxy-N-methyl-3-(2-phenyl-1H-pyrrolo[2,3-b]pyridin-5-yl)benzamide] | 0.0001 to 10 µM
NC1CN(C(=O)c2n[nH]c3ccc(-c4cnc5[nH]c(-c6ccccc6)cc5c4)cc23)C1 [Compound P-0029, (3-aminoazetidin-1-yl)-[5-(2-phenyl-1H-pyrrolo[2,3-b]pyridin-5-yl)-1H-indazol-3-yl]methanone] | 0.0001 to 10 µM
CNC(=O)C1CCN(C(=O)c2cccc(-c3cnc4[nH]c(-c5ccccc5)cc4c3)n2)CC1 [Compound P-0030, N-methyl-1-[6-(2-phenyl-1H-pyrrolo[2,3-b]pyridin-5-yl)pyridine-2-carbonyl]piperidine-4-carboxamide] | 0.0001 to 10 µM
CS(=O)(=O)NC1CCN(C(=O)c2cccc(-c3cnc4[nH]c(-c5ccccc5)cc4c3)n2)CC1 [Compound P-0032, N-[1-[6-(2-phenyl-1H-pyrrolo[2,3-b]pyridin-5-yl)pyridine-2-carbonyl]-4-piperidyl]methanesulfonamide] | 0.0001 to 10 µM
Cc1ccc(-c2cnc3[nH]c(-c4ccccc4)cc3c2)nc1C(=O)N1CCC(N)CC1 [Compound P-0033, (4-amino-1-piperidyl)-[3-methyl-6-(2-phenyl-1H-pyrrolo[2,3-b]pyridin-5-yl)-2-pyridyl]methanone] | 0.0001 to 10 µM
NC1CCN(c2cccc3ccc(-c4cnc5[nH]c(-c6ccccc6)cc5c4)nc23)CC1 [Compound P-0034, 1-[2-(2-phenyl-1H-pyrrolo[2,3-b]pyridin-5-yl)-8-quinolyl]piperidin-4-amine] | 0.0001 to 10 µM
O=C(NC1CCNCC1)c1n[nH]c2ccc(-c3cnc4[nH]c(-c5ccccc5)cc4c3)cc12 [Compound P-0039, 5-(2-phenyl-1H-pyrrolo[2,3-b]pyridin-5-yl)-N-(4-piperidyl)-1H-indazole-3-carboxamide] | 0.0001 to 10 µM
CNC1CCN(C(=O)c2cccc(-c3cnc4[nH]c(-c5ccccc5)cc4c3)n2)CC1 [Compound P-0041, [4-(methylamino)-1-piperidyl]-[6-(2-phenyl-1H-pyrrolo[2,3-b]pyridin-5-yl)-2-pyridyl]methanone] | 0.0001 to 10 µM
NC1CCN(C(=O)c2c[nH]c3ccc(-c4cnc5[nH]c(-c6ccccc6)cc5c4)cc23)CC1 [Compound P-0042, (4-amino-1-piperidyl)-[5-(2-phenyl-1H-pyrrolo[2,3-b]pyridin-5-yl)-1H-indol-3-yl]methanone] | 0.0001 to 10 µM
O=C(c1cccc(-c2cnc3[nH]c(-c4ccccc4)cc3c2)n1)C1CCNCC1 [Compound P-0043, [6-(2-phenyl-1H-pyrrolo[2,3-b]pyridin-5-yl)-2-pyridyl]-(4-piperidyl)methanone] | 0.0001 to 10 µM
CNC1CCN(C(=O)c2n[nH]c3ccc(-c4cnc5[nH]c(-c6ccccc6)cc5c4)cc23)CC1 [Compound P-0044, [4-(methylamino)-1-piperidyl]-[5-(2-phenyl-1H-pyrrolo[2,3-b]pyridin-5-yl)-1H-indazol-3-yl]methanone] | 0.0001 to 10 µM
O=C(NC1CCNC1)c1cccc(-c2cnc3[nH]c(-c4ccccc4)cc3c2)n1 (stereo not shown) [Compound P-0045, 6-(2-phenyl-1H-pyrrolo[2,3-b]pyridin-5-yl)-N-pyrrolidin-3-yl-pyridine-2-carboxamide] | 0.0001 to 10 µM
N[C@H]1CCN(C(=O)c2cc(-c3cnc4[nH]c(-c5ccccc5)cc4c3)ccn2)C1 [Compound P-0046, [(3S)-3-aminopyrrolidin-1-yl]-[4-(2-phenyl-1H-pyrrolo[2,3-b]pyridin-5-yl)-2-pyridyl]methanone] | 0.0001 to 10 µM
NC1CCC(C(=O)N2Cc3c(cccc3-c3cnc4[nH]c(-c5ccccc5)cc4c3)C2=O)C1 (stereo not shown) [Compound P-0047, 2-(3-aminocyclopentanecarbonyl)-4-(2-phenyl-1H-pyrrolo[2,3-b]pyridin-5-yl)isoindolin-1-one] | 0.0001 to 10 µM
c1ccc(-c2cc3cc(-c4ccc5[nH]nc(NC6CNC6)c5c4)cnc3[nH]2)cc1 [Compound P-0053, N-(azetidin-3-yl)-5-(2-phenyl-1H-pyrrolo[2,3-b]pyridin-5-yl)-1H-indazol-3-amine] | 0.0001 to 10 µM
c1ccc(-c2cc3cc(-c4ccc5[nH]nc(NC6CCNCC6)c5c4)cnc3[nH]2)cc1 [Compound P-0056, 5-(2-phenyl-1H-pyrrolo[2,3-b]pyridin-5-yl)-N-(4-piperidyl)-1H-indazol-3-amine] | 0.0001 to 10 µM
N=C(N)N1CCN(C(=O)c2cccc(-c3cnc4[nH]c(-c5ccccc5)cc4c3)n2)CC1 [Compound P-0057, 4-[6-(2-phenyl-1H-pyrrolo[2,3-b]pyridin-5-yl)pyridine-2-carbonyl]piperazine-1-carboxamidine] | 0.0001 to 10 µM
c1ccc(-c2cc3cc(-c4ccc5[nH]nc(NC6CCNC6)c5c4)cnc3[nH]2)cc1 (stereo not shown) [Compound P-0059, 5-(2-phenyl-1H-pyrrolo[2,3-b]pyridin-5-yl)-N-pyrrolidin-3-yl-1H-indazol-3-amine] | 0.0001 to 10 µM
O=C(c1cccc(-c2cnc3[nH]c(-c4ccccc4)cc3c2)n1)N1CCC(O)C1 (stereo not shown) [Compound P-0068, (3-hydroxypyrrolidin-1-yl)-[6-(2-phenyl-1H-pyrrolo[2,3-b]pyridin-5-yl)-2-pyridyl]methanone] | 0.0001 to 10 µM
O=C(c1cccc(-c2cnc3[nH]c(-c4ccccc4)cc3c2)n1)N1CCCC(O)C1 (stereo not shown) [Compound P-0069, (3-hydroxy-1-piperidyl)-[6-(2-phenyl-1H-pyrrolo[2,3-b]pyridin-5-yl)-2-pyridyl]methanone] | 0.0001 to 10 µM
NC1CCN(C(=O)c2n[nH]c3ccc(-c4cnc5[nH]c(C6=CCN(C(=O)C7CC7)C6)cc5c4)cc23)CC1 [Compound P-0074, (4-amino-1-piperidyl)-[5-[2-[1-(cyclopropanecarbonyl)-2,5-dihydropyrrol-3-yl]-1H-pyrrolo[2,3-b]pyridin-5-yl]-1H-indazol-3-yl]methanone] | 0.0001 to 10 µM
CC1(N)CCN(C(=O)c2cccc(-c3cnc4[nH]c(-c5ccccc5)cc4c3)n2)CC1 [Compound P-0081, (4-amino-4-methyl-1-piperidyl)-[6-(2-phenyl-1H-pyrrolo[2,3-b]pyridin-5-yl)-2-pyridyl]methanone] | 0.0001 to 10 µM

More lines, now with the values ahead:

IC50 | Compound
10 to 50 µM | CC(=O)NC1CCN(C(=O)c2cccc(-c3cnc4[nH]c(-c5ccc(F)cc5)cc4c3)c2)CC1 [Compound P-0001, N-[1-[3-[2-(4-fluorophenyl)-1H-pyrrolo[2,3-b]pyridin-5-yl]benzoyl]-4-piperidyl]acetamide]
0.0001 to 10 µM | CCNC(=O)NC1CCN(C(=O)c2cccc(-c3cnc4[nH]c(-c5ccccc5)cc4c3)n2)CC1 [Compound P-0031, 1-ethyl-3-[1-[6-(2-phenyl-1H-pyrrolo[2,3-b]pyridin-5-yl)pyridine-2-carbonyl]-4-piperidyl]urea]
0.0001 to 10 µM | Cc1ccc(-c2cnc3[nH]c(-c4ccccc4)cc3c2)cc1C(=O)N1CCC(N)CC1 [Compound P-0035, (4-amino-1-piperidyl)-[2-methyl-5-(2-phenyl-1H-pyrrolo[2,3-b]pyridin-5-yl)phenyl]methanone]
0.0001 to 10 µM | N[C@H]1CCN(C(=O)c2cccc(-c3cnc4[nH]c(-c5ccccc5)cc4c3)c2)C1 [Compound P-0036, [(3S)-3-aminopyrrolidin-1-yl]-[3-(2-phenyl-1H-pyrrolo[2,3-b]pyridin-5-yl)phenyl]methanone]
0.0001 to 10 µM | NC1CCN(C(=O)c2cc(-c3cnc4[nH]c(-c5ccccc5)cc4c3)ccn2)CC1 [Compound P-0038, (4-amino-1-piperidyl)-[4-(2-phenyl-1H-pyrrolo[2,3-b]pyridin-5-yl)-2-pyridyl]methanone]
10 to 50 µM | N[C@H]1CCN(C(=O)c2csc(-c3cnc4[nH]c(-c5ccccc5)cc4c3)n2)C1 [Compound P-0048, [(3S)-3-aminopyrrolidin-1-yl]-[2-(2-phenyl-1H-pyrrolo[2,3-b]pyridin-5-yl)thiazol-4-yl]methanone]
0.0001 to 10 µM | NC1CCCN(C(=O)c2cccc(-c3cnc4[nH]c(-c5ccccc5)cc4c3)n2)C1 (stereo not shown) [Compound P-0067, (3-amino-1-piperidyl)-[6-(2-phenyl-1H-pyrrolo[2,3-b]pyridin-5-yl)-2-pyridyl]methanone]
0.0001 to 10 µM | CN(C(=O)c1cccc(-c2cnc3[nH]c(-c4ccccc4)cc3c2)n1)C1CCNC1 (stereo not shown) [Compound P-0076, N-methyl-6-(2-phenyl-1H-pyrrolo[2,3-b]pyridin-5-yl)-N-pyrrolidin-3-yl-pyridine-2-carboxamide]
0.0001 to 10 µM | CNC1CCCN(C(=O)c2cccc(-c3cnc4[nH]c(-c5ccccc5)cc4c3)n2)C1 (stereo not shown) [Compound P-0080, [3-(methylamino)-1-piperidyl]-[6-(2-phenyl-1H-pyrrolo[2,3-b]pyridin-5-yl)-2-pyridyl]methanone]
